“Also recorded” adds a separate entry of the source.
Legend:
normal rats = details: cited from earlier work
[1] = tested on: chronic 2K,1C Goldblatt rats; assay: Acute interventions in anesthetized chronic 2K,1C rats twelve months after clipping: MAP, cortical blood flow and renal pO2 of the clipped kidney; type: in vivo, Sprague-Dawley rats
Procedure: (§1) As described in Welch et al., Hypertension, 41:692-696 (2003) and Palm et al., Hypertension, 51:345-351 (2008), young male Sprague-Dawley rats (80-100 g) were anesthetized with isoflurane (0.5-1.5%). A silver clip (0.2 mm) was placed around the left renal artery (2K,1C). Age-matched rats were used as controls (sham).
(§2) All rats received hydralazine+hydrochlorothiazide+reserpine (HHR; 30+10+0.2 mg·kg^−1·day^−1) in the drinking water as described in Welch et al., Kidney Int., 63:202-208 (2003) in order to maximize survival of the clipped rats. The HHR treatment was discontinued 14 days prior to undergoing the protocol described hereinafter.
(§3) Twelve months after clipping, all rats were anesthetized with Inactin (100 mg·kg^−1 i.p.; Sigma-Aldrich, St. Louis, Mo.), and an endotracheal tube was inserted for spontaneous respiration. Rats were prepared according to the protocol described in Palm et al., Hypertension, 51:345-351 (2008). Briefly, the left femoral artery was catheterized for monitoring mean arterial blood pressure (MAP) and the left femoral vein for infusion of saline (5 ml·kg bw^−1·h^−1). The left kidney was immobilized in a plastic cup while renal cortical pO2 and cortical blood flow (CBF) were measured with O2 microelectrodes (Unisense, Aarhus, Denmark) and laser-Doppler needle probes (Transonic Systems Inc, Ithaca, N.Y.) as described in Palm et al., Diabetologia, 46:1153-1160 (2003); Palm et al., Hypertension, 51:345-351 (2008); and Liss et al., Pflügers Arch., 434:705-711 (1997).
Measurements in 2K,1C rats were made before and after injections of PD-123,319 (1 mg·kg bw^−1 bolus+1 mg·kg bw^−1·h^−1; Sigma Aldrich) followed 30 minutes later by either enalaprilat (0.3 mg·kg bw^−1 bolus+0.3 mg·kg bw^−l·h^−1; Novaplus 1.25 mg·m^−1; Baxter Healthcare Corporation, Deerfield, Ill.) or tempol (174 μmmol·kg bw^−1 bolus+174 μmmol·kg bw^−1·h^−1; Sigma Aldrich) followed 30 minutes later by enalaprilat or candesartan (1 mg·kg bw^−1 bolus+1 mg·kg bw^−1·h^−1; provided by Astra Zeneca, Södertälje Sweden) followed after 30 minutes by enalaprilat. […] See e.g., Duke et al., Br. J. Pharmacol., 144:486-492 (2005).
The data in Example 1 was analyzed using ANOVA for multiple data sets and Student's t-test for paired comparisons. When appropriate, this was followed by Dunnett's post hoc. […] The Mann-Whitney test was used for Western blot densitometry data. For all comparisons, p<0.05 was considered statistically significant. All values are expressed as mean±SEM.

sham rats = assay: Acute interventions in anesthetized age-matched sham rats: MAP, cortical blood flow and renal pO2; type: in vivo, Sprague-Dawley rats
Procedure: as §1, §2
as §3, with “Rats were prepared according to the protocol described in Palm et al., Hypertension, 51:345-351 (2008). Briefly, the left femoral artery was catheterized for monitoring mean arterial blood pressure (MAP) and the left femoral vein for infusion of saline (5 ml·kg bw^−1·h^−1).” left out, “(1997). […]” for “(1997).”
The data in Example 1 was analyzed using ANOVA for multiple data sets and Student's t-test for paired comparisons. […] All values are expressed as mean±SEM.

[2] = reported, in contrast to early stage 2K,1C rats; similar results in a hypercholesterolemic pig model; cited from earlier work
[3] = solutions containing Tempol; cited from earlier work
[4] = tested on: 2K,1C Goldblatt rats in the early stages of renal hypertension; details: early stage 2K,1C Goldblatt rats; prolonged administration; cited from earlier work
essential hypertension = details: cited from earlier work
[5] = acute i.v. bolus + infusion of the agent alone
[6] = clipped kidney, agent alone, listed as tempol

Cc1cc(Cn2cnc3c2C[C@@H](C(=O)O)N(C(=O)C(c2ccccc2)c2ccccc2)C3)ccc1N(C)C [PD-123,319, reference compound]
mean arterial pressure or kidney function (normal rats): has not been found to change mean arterial pressure or kidney function | mean arterial blood pressure (MAP) [1, 5]: unaffected | renal cortical blood flow (CBF) ([1]; clipped kidney, agent alone): Neither candesartan nor PD-123,319 alone changed CBF significantly

CC1(C)CC(O)CC(C)(C)N1[O] [Tempol, 4-hydroxy-2,2,6,6-tetramethyl-1-piperidine-1-oxyl]
renal cortical pO2 (sham rats): not effective | mean arterial blood pressure (MAP) [1, 5]: lowers MAP; also recorded: more effective in lowering MAP | mean arterial blood pressure (MAP) ([1]; acute i.v. bolus + infusion of the agent alone, listed as tempol): significantly more effective | renal cortical blood flow (CBF) ([1]; clipped kidney, agent alone): effectively increases both the cortical blood flow and the tissue pO2 | renal cortical pO2 ([1]; clipped kidney, agent alone): effectively increases both the cortical blood flow and the tissue pO2 | renal medullary pO2 ([1]; clipped kidney, agent alone): effectively increases both the cortical blood flow and the tissue pO2 | renal cortical blood flow (CBF) [1, 6]: increased | renal cortical pO2 [1, 6]: increased the cortical pO2 | renal medullary pO2 [1, 6]: increased the medullary pO2 | renal blood flow, cortical perfusion or GFR [2]: failed to improve renal blood flow, cortical perfusion or GFR | stability of solutions left in sunlight [3]: discolor when left in sunlight | glomerular filtration rate (GFR) [4]: improved the glomerular filtration rate (GFR) | mean arterial pressure (MAP) [4]: reduced mean arterial pressure (MAP) | oxygen tension (pO2) of the clipped kidney [4]: improved oxygen tension (pO2) of the clipped kidney | renal blood flow [4]: improved renal blood flow | anti-hypertensive effect (essential hypertension): demonstrated anti-hypertensive effect

C[C@H](N[C@@H](CCc1ccccc1)C(=O)O)C(=O)N1CCC[C@H]1C(=O)O [enalaprilat, reference compound]
renal cortical pO2 (sham rats): increased cortical pO2 | renal cortical blood flow (CBF) ([1]; enalaprilat after tempol): did not change further | renal medullary pO2 ([1]; enalaprilat after tempol): did not change the medullary pO2 further | renal cortical blood flow (CBF) ([1]; enalaprilat following candesartan): reduced significantly | mean arterial blood pressure (MAP) ([1]; enalaprilat given 30 minutes after PD-123,319): did reduce the MAP | mean arterial blood pressure (MAP) ([1]; enalaprilat given 30 minutes after candesartan): did not produce a further fall in MAP | mean arterial blood pressure (MAP) ([1]; enalaprilat given 30 minutes after tempol): did not produce a further fall in MAP | renal cortical pO2 ([1]; tempol followed by enalaprilat): not changed significantly
